Peptide text beside a SMILES is read from it.
How the values were obtained:
[1] = Stimulation of growth hormone secretion in rat pituitary cells; format: functional, cell-based; settings: Pituitary gland cell
[2] = target: T1, Growth hormone secretagogue receptor type 1 (Homo sapiens, UniProt Q92847); assay: Binding affinity to GHS-R1a (unknown origin) assessed as inhibition constant
[3] = target: T1, Growth hormone secretagogue receptor type 1; assay: Binding affinity to GHS-R1a (unknown origin); settings: filed as agonist
[4] = Oral bioavailability in human; format: ADME, organism-based; settings: in vivo
[5] = Stimulation of growth hormone secretion in Wistar rat pituitary cells measured after 15 mins; format: functional, cell-based; settings: Pituitary gland cell, 0.25 h

T1 sequence (Q92847 whole entry): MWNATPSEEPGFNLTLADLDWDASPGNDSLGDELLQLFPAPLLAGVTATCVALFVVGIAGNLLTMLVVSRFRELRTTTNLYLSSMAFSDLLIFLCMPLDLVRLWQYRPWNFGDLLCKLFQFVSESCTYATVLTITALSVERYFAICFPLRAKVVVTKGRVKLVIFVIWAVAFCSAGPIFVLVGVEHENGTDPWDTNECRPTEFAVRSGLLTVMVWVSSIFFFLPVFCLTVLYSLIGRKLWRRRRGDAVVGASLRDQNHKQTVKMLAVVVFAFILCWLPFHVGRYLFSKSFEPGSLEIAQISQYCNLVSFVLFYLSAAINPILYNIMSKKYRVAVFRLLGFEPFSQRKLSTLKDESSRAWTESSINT

SMILES | EC50 [1] [nM] | further results
C[C@H](NC(=O)[C@H](Cc1c[nH]c2ccccc12)NC(=O)[C@@H](N)Cc1c[nH]cn1)C(=O)N[C@@H](Cc1c[nH]c2ccccc12)C(=O)N[C@@H](Cc1ccccc1)C(=O)N[C@@H](CCCCN)C(N)=O (H-HWAWFK-NH2) | 10 | –
C[C@H](O)CNC(C)(C)CC(=O)N[C@@H]1CCc2ccccc2N(Cc2ccc(-c3ccccc3-c3nn[nH]n3)cc2)C1=O | 3 | –
CN1CCC(S(=O)(=O)N[C@@H](COCc2ccccc2)C(=O)N2CCC3(CC2)CN(S(C)(=O)=O)c2ccccc23)CC1 | – | Ki [2]: < 100 nM
CC(C)(N)C(=O)N[C@H](COCc1ccccc1)C(=O)N1CCC2(CC1)CN(S(C)(=O)=O)c1ccccc12 [IBUTAMOREN] | 1.3 | Activity [3]: 0.3 nM
Cc1[nH]c2ccccc2c1C[C@@H](NC(=O)[C@@H](N)Cc1cnc[nH]1)C(=O)N[C@@H](C)C(=O)N[C@@H](Cc1c[nH]c2ccccc12)C(=O)N[C@H](Cc1ccccc1)C(=O)N[C@@H](CCCCN)C(N)=O [EXAMORELIN] (HELM PEPTIDE1{H.[Cc1[nH]c2ccccc2c1C[C@@H](N[*:1])C(=O)[*:2]].A.W.[dF].K.[am]}$$$$V2.0) | – | bioavailability [4]: < 1%
CN1N=C2CCN(C(=O)[C@@H](COCc3ccccc3)NC(=O)C(C)(C)N)C[C@@]2(Cc2ccccc2)C1=O [CAPROMORELIN] | – | EC50 [5]: 3 nM
CC(C)(N)CC(=O)N[C@@H]1CCc2ccccc2N(Cc2ccc(-c3ccccc3-c3nn[nH]n3)cc2)C1=O | 60 | –

From ChEMBL document CHEMBL5113387, “An insight into the multifunctional role of ghrelin and structure activity relationship studies of ghrelin receptor ligands with clinical trials” (Eur J Med Chem, 2022)
